Each cell line was assayed with Cn1nnc2c(C(N)=O)ncn2c1=O [Temozolomide] + N=C(N)NC(=N)NCCc1ccccc1 [Phenformin] (partner 250 µM) (assay: relative viability (nuclei count vs DMSO), 5 days (fraction); higher = more cells survive). Conditions: first compound 2 µM.
Method in brief: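 A single step with final 0.05% Triton X-100, 1% formaldehyde and 1 ug/ml Hoechst fixed the cells and stained nuclei 5 days after treatment. Lung cancer cell lines in 1536-well plates had been treated by pin tool the day after seeding with one drug alone or a fixed anchor-drug dose plus five library-drug doses (not always all listed) in √10 steps, and nuclei were counted on 4× images. Relative viability is the ratio of nuclei in treated wells to nuclei in vehicle wells, taken as the median of duplicate plates.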

In order of falling relative viability:
1. NCI-H441  0.93
2. LU99A  0.865
3. HOP-62  0.818
4. NCI-H322M  0.811
5. NCI-H23  0.789
6. NCI-H522  0.728
7. LOU-NH91  0.711
8. NCI-H838  0.676
9. NCI-H520  0.675
10. NCI-H1755  0.621
11. NCI-H647  0.593
12. NCI-H1666  0.585
13. LC-2-ad  0.584
14. NCI-H727  0.572
15. NCI-H1355  0.522
16. LXF-289  0.511
17. NCI-H1395  0.494
18. LCLC-97TM1  0.492
19. NCI-H460  0.492
20. LK-2  0.455
21. NCI-H1650  0.446
22. NCI-H1734  0.437
23. NCI-H650  0.403
24. NCI-H1793  0.394
25. NCI-H1437  0.378
26. NCI-H358  0.367
27. LCLC-103H  0.359
28. NCI-H1651  0.353
29. NCI-H1915  0.35
30. NCI-H1792  0.328
31. NCI-H661  0.247
32. NCI-H1944  0.233

Same assay, conditions: first compound 6.325 µM

In order of rising relative viability:
1. NCI-H1792  0.155
2. LK-2  0.179
3. HCC-44  0.185
4. NCI-H1944  0.19
5. NCI-H1651  0.268
6. NCI-H1915  0.268
7. NCI-H661  0.279
8. NCI-H1437  0.289
9. NCI-H358  0.296
10. NCI-H1793  0.297
11. LCLC-103H  0.31
12. NCI-H1734  0.383
13. NCI-H650  0.404
14. HCC-827  0.41
15. LCLC-97TM1  0.418
16. NCI-H1650  0.424
17. NCI-H1395  0.435
18. NCI-H1355  0.44
19. LXF-289  0.457
20. NCI-H727  0.462
21. NCI-H647  0.463
22. NCI-H460  0.488
23. NCI-H520  0.499
24. NCI-H1666  0.526
25. NCI-H1755  0.547
26. NCI-H838  0.568
27. LC-2-ad  0.601
28. HCC-366  0.621
29. NCI-H522  0.626
30. HCC-78  0.656
31. HOP-62  0.657
32. LU99A  0.68
33. NCI-H441  0.738
34. NCI-H322M  0.769
35. NCI-H23  0.784
36. LOU-NH91  0.788

Same assay, conditions: first compound 20 µM

In order of falling relative viability:
1. HCC-78  0.751
2. HOP-62  0.717
3. HCC-366  0.62
4. LC-2-ad  0.46
5. LCLC-97TM1  0.412
6. HCC-44  0.315
7. HCC-827  0.131
